Assay [1] has as its system Meth A fibrosarcoma (Meth A) cells. In words: Assay of antiproliferative activity against Meth A fibrosarcoma (Meth A) cells. Format: cell-based. As to conditions: Mus musculus, 72 hours culture at 37°C and 5% CO₂, cell count with Coulter counter, mean of 3 wells, read-out: Meth A cell growth inhibitory activity IC₅₀. As for the experimental part: Assay of antiproliferative activity against Meth A fibrosarcoma (Meth A) cells
Meth A cells (2 x 10⁴ cells/ml) prepared in the routine manner were seeded, 2.0 ml per well, in a 12-well plate and subjected to stationary culture at 37°C and 5% CO₂. Each Example compound dissolved at an appropriate concentration was serially diluted 1:2 to 1:10 with MEM (Nissui Pharmaceutical) and added in the medium and again the cells were subjected to stationary culture for 72 hours at 37°C and 5% CO₂. Then, the total cell count at each concentration was determined with a Coulter counter (Coulter Electronics, FL) and the mean value of 3 wells was expressed as cell count per milliliter. The concentration of each compound required to reduce the cell count of the untreated control group to 50% was regarded as the IC₅₀ value of the compound.

The target of assay [2] is T1, thymidylate synthase (TS) (Mus musculus, UniProt P07607).
T1 construct: A crude fraction of TS was prepared from Meth A fibrosarcoma (Meth A) cells subcultured in vitro; endogenous in cells; host or cells: Meth A fibrosarcoma cells (100,000 x g supernatant of ultrasonicated cells)
The experiment in a line: Assay of TS inhibitory activity. Format: biochemical. Conditions: crude TS fraction from Meth A cells; [H³]dUMP, 37°C, 1 hour; read-out: TS inhibitory activity IC₅₀. As for the experimental part: Assay of TS inhibitory activity
A crude fraction of TS was prepared from Meth A fibrosarcoma (Meth A) cells subcultured in vitro. For cell culture, Eagle's minimum essential medium (MEM, Nissui Pharmaceutical) containing 10% fetal bovine serum was used. Cells in the logarithmic growth phase were harvested, washed twice with phosphate buffered saline, suspended in 0.2 M sucrose and 0.01 M Tris-HCl buffer (pH 7.5), ultrasonicated, and centrifuged at 100,000 x g to obtain a supernatant. The protein concentration was determined using a protein dye reagent (Bio-Rad) with bovine γ-globulin as standard protein. Samples with a protein concentration of 100 mg/ml were prepared.
The enzymatic reaction was conducted as follows, using the method described by D. Roberts in Biochemistry 5, 3546 (1966), partially modified. The reaction mixture consisted of 0.058% formaldehyde, 6.78 mM sodium fluoride, 0.2 mM 2-mercaptoethanol, 6.24 mg/ml bovine serum albumin, 80 µM […] (dUMP), 80 µM tetrahydrofolic acid, 2 mg/ml crude TS fraction, and 0.173 M Tris-HCl buffer (pH 7.5). To this mixture was added a varying concentration of each Example compound. To 50 µl of each final mixture was added 540 KBq [H³]dUMP and the resultant mixture was incubated in a 96-well plate at 37°C for 1 hour. After completion of the incubation, 26.65% trichloroacetic acid and 3.33 mg/ml dUMP were added to stop the reaction and 220 µl of 11.4 mg/ml activated charcoal was added. The whole volume was centrifuged and the radioactivity in 100 µl of the supernatant was determined by the liquid scintillation method. Thus, the concentration required to cause 50% inhibition of TS activity (IC₅₀ value) was obtained.

T1 sequence (P07607 whole entry): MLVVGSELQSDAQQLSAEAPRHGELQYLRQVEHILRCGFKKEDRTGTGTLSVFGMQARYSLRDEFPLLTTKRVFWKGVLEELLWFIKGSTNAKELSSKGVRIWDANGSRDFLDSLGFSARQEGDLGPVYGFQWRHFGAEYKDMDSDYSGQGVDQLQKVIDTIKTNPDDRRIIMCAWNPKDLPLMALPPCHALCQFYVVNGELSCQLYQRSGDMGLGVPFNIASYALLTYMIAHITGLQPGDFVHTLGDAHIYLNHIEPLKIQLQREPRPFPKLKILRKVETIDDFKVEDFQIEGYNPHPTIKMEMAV

`NCC(c1ccc(C(=O)N[C@@H](CCC(=O)O)C(=O)O)cc1)c1c[nH]c2nc(N)nc(O)c12` (stereo partly drawn) [Example 18, N-[4-[1-(2-amino-4-hydroxy-7H-pyrrolo[2,3-d]pyrimidin-5-yl)-2-aminoethyl]benzoyl]-L-glutamic acid]: in assay [1], the IC50 worked out at 810 nM.

With `Nc1nc(O)c2c(Cc3ccc(C(=O)N[C@@H](CCC(=O)O)C(=O)O)cc3F)c[nH]c2n1` [Example 8, N-[4-(2-amino-4-hydroxy-7H-pyrrolo[2,3-d]pyrimidin-5-yl)methyl-3-fluorobenzoyl]-L-glutamic acid], the IC50 came to 490 nM in assay [2] and 110 nM in assay [1].

`Nc1nc(O)c2c(C(C[N+](=O)[O-])c3ccc(C(=O)N[C@@H](CCC(=O)O)C(=O)O)cc3)c[nH]c2n1` (stereo partly drawn) [Example 16, N-[4-[1-(2-amino-4-hydroxy-7H-pyrrolo[2,3-d]pyrimidin-5-yl)-2-nitroethyl]benzoyl]-L-glutamic acid]: the IC50 in assay [2] came out at 590 nM; in assay [1], 93 nM.

As to `C=CC(c1ccc(C(=O)N[C@@H](CCC(=O)O)C(=O)O)cc1)c1c[nH]c2nc(N)nc(O)c12` (stereo partly drawn) [Example 14, N-[4-[1-(2-amino-4-hydroxy-7H-pyrrolo[2,3-d]pyrimidin-5-yl)-2-propenyl]benzoyl]-L-glutamic acid], the IC50 in assay [2] came to 37 nM; in assay [1] it was 91 nM.

For the compound `Nc1nc2[nH]cc(Cc3ccc(C(=O)N[C@@H](CCC(=O)O)C(=O)O)s3)c2c(=O)[nH]1` [Example 6, N-[5-(2-amino-4-hydroxy-7H-pyrrolo[2,3-d]pyrimidin-5-yl)methyl-2-thenoyl]-L-glutamic acid], the IC50 in assay [2] was determined as 83 nM; in assay [1], 63 nM.

As for `Cn1cc(Cc2ccc(C(=O)N[C@@H](CCC(=O)O)C(=O)O)cc2)c2c(O)nc(N)nc21` [Example 2, N-[4-(2-amino-4-hydroxy-7-methylpyrrolo-[2,3-d]pyrimidin-5-yl)methylbenzoyl]-L-glutamic acid], the IC50 in assay [2] amounted to 860 nM.

As to `Nc1nc(O)c2c(Cc3ccc(C(=O)N[C@@H](CCC(=O)O)C(=O)O)cc3)c[nH]c2n1` [Example 4, N-[4-(2-amino-4-hydroxy-7H-pyrrolo[2,3-d]pyrimidin-5-yl)methylbenzoyl]-L-glutamic acid], the IC50 in assay [1] amounted to 76 nM.

Turning to `CC(c1ccc(C(=O)N[C@@H](CCC(=O)O)C(=O)O)cc1)c1c[nH]c2nc(N)nc(O)c12` (stereo partly drawn) [Example 10, N-[4-[1-(2-amino-4-hydroxy-7H-pyrrolo[2,3-d]pyrimidin-5-yl)ethyl]benzoyl]-L-glutamic acid], the IC50 in assay [2] was found to be 39 nM; in assay [1], 66 nM.

`CCC(c1ccc(C(=O)N[C@@H](CCC(=O)O)C(=O)O)cc1)c1c[nH]c2nc(N)nc(O)c12` (stereo partly drawn) [Example 12, N-[4-[1-(2-amino-4-hydroxy-7H-pyrrolo[2,3-d]pyrimidin-5-yl)propyl]benzoyl]-L-glutamic acid]: in assay [1], the IC50 worked out at 39 nM.

The record behind these values is patent EP0549291A1, “Thymidylate synthase inhibitors” (TAKEDA CHEMICAL INDUSTRIES, LTD., priority 1991, dated 1993).
